Assay results reported in PubChem BioAssay AID2060912 (Molecular Pharmacology Branch, DTP, NCI, 2025).

Test system: HUVEC/MSC spheroids viability
Assay: Human HUVEC/MSC cell line growth inhibition [KRAS2];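 for viability, T/C: percent of DMSO vehicle control luminescence so 100% = untreated viability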
Conditions: for IC50: curve of first compound; for viability, T/C: stronger effect = lower value
Outline: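 Stroma-only multicellular spheroids, formed from HUVEC and human MSCs at passages </=5, received RAS-pathway inhibitors with or without a second targeted drug. Dosing followed half-log dilutions from clinically achievable levels.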

[1] = second compound 0.0316 µM, first compound 0.0316 µM
[2] = second compound 0.0316 µM, first compound 0.1 µM
[3] = second compound 0.0316 µM, first compound 0.316 µM
[4] = second compound 0.0316 µM, first compound 1 µM
[5] = second compound 0.0316 µM, first compound 3.16 µM
[6] = second compound 0.0316 µM, first compound 10 µM
[7] = second compound 0.1 µM, first compound 0.0316 µM
[8] = second compound 0.1 µM, first compound 0.1 µM
[9] = second compound 0.1 µM, first compound 0.316 µM
[10] = second compound 0.1 µM, first compound 1 µM
[11] = second compound 0.1 µM, first compound 3.16 µM
[12] = second compound 0.1 µM, first compound 10 µM
[13] = second compound 0.316 µM, first compound 0.0316 µM
[14] = second compound 0.316 µM, first compound 0.1 µM
[15] = second compound 0.316 µM, first compound 0.316 µM
[16] = second compound 0.316 µM, first compound 1 µM
[17] = second compound 0.316 µM, first compound 3.16 µM
[18] = second compound 0.316 µM, first compound 10 µM
[19] = second compound 1 µM, first compound 0.0316 µM
[20] = second compound 1 µM, first compound 0.1 µM
[21] = second compound 1 µM, first compound 0.316 µM
[22] = second compound 1 µM, first compound 1 µM
[23] = second compound 1 µM, first compound 3.16 µM
[24] = second compound 1 µM, first compound 10 µM
[25] = second compound 3.16 µM, first compound 0.0316 µM
[26] = second compound 3.16 µM, first compound 0.1 µM
[27] = second compound 3.16 µM, first compound 0.316 µM
[28] = second compound 3.16 µM, first compound 1 µM
[29] = second compound 3.16 µM, first compound 3.16 µM
[30] = second compound 3.16 µM, first compound 10 µM
[31] = second compound 10 µM, first compound 0.0316 µM
[32] = second compound 10 µM, first compound 0.1 µM
[33] = second compound 10 µM, first compound 0.316 µM
[34] = second compound 10 µM, first compound 1 µM
[35] = second compound 10 µM, first compound 3.16 µM
[36] = second compound 10 µM, first compound 10 µM

## CC1COCCN1c1cc(-c2ccnn2C)c2ccnc(-c3ccn[nH]3)c2n1 (stereo not drawn) + CNCc1ccccc1-c1csc(C(C)Nc2nc(C)nc3cc(OC)c(OC)cc23)c1
Second compound 0.0316 µM
  IC50: 1.61 µM
Second compound 0.1 µM
  IC50: 3 µM
Second compound 0.316 µM
  IC50: 1.77 µM
Second compound 1 µM
  IC50: 1.26 µM
Second compound 3.16 µM
  IC50: > 3 µM
Second compound 10 µM
  IC50: < 0.00949 µM
Second compound 0.0316 µM, first compound 0.00949 µM
  viability, T/C: 102%
Second compound 0.0316 µM, first compound 0.03 µM
  viability, T/C: 96.5%
Second compound 0.0316 µM, first compound 0.0949 µM
  viability, T/C: 87%
Second compound 0.0316 µM, first compound 0.3 µM
  viability, T/C: 74.9%
Second compound 0.0316 µM, first compound 0.949 µM
  viability, T/C: 54.1%
Second compound 0.0316 µM, first compound 3 µM
  viability, T/C: 43.8%
Second compound 0.1 µM, first compound 0.00949 µM
  viability, T/C: 88.4%
Second compound 0.1 µM, first compound 0.03 µM
  viability, T/C: 98.8%
Second compound 0.1 µM, first compound 0.0949 µM
  viability, T/C: 105%
Second compound 0.1 µM, first compound 0.3 µM
  viability, T/C: 78.2%
Second compound 0.1 µM, first compound 0.949 µM
  viability, T/C: 63.1%
Second compound 0.1 µM, first compound 3 µM
  viability, T/C: 48.3%
Second compound 0.316 µM, first compound 0.00949 µM
  viability, T/C: 97.5%
Second compound 0.316 µM, first compound 0.03 µM
  viability, T/C: 95.1%
Second compound 0.316 µM, first compound 0.0949 µM
  viability, T/C: 74%
Second compound 0.316 µM, first compound 0.3 µM
  viability, T/C: 66.7%
Second compound 0.316 µM, first compound 0.949 µM
  viability, T/C: 60.4%
Second compound 0.316 µM, first compound 3 µM
  viability, T/C: 42.8%
Second compound 1 µM, first compound 0.00949 µM
  viability, T/C: 85.8%
Second compound 1 µM, first compound 0.03 µM
  viability, T/C: 78%
Second compound 1 µM, first compound 0.0949 µM
  viability, T/C: 70.6%
Second compound 1 µM, first compound 0.3 µM
  viability, T/C: 67.1%
Second compound 1 µM, first compound 0.949 µM
  viability, T/C: 54.8%
Second compound 1 µM, first compound 3 µM
  viability, T/C: 37.7%
Second compound 3.16 µM, first compound 0.00949 µM
  viability, T/C: 94%
Second compound 3.16 µM, first compound 0.03 µM
  viability, T/C: 101%
Second compound 3.16 µM, first compound 0.0949 µM
  viability, T/C: 92.6%
Second compound 3.16 µM, first compound 0.3 µM
  viability, T/C: 81.8%
Second compound 3.16 µM, first compound 0.949 µM
  viability, T/C: 80.1%
Second compound 3.16 µM, first compound 3 µM
  viability, T/C: 67.6%
Second compound 10 µM, first compound 0.00949 µM
  viability, T/C: 0.34%
Second compound 10 µM, first compound 0.03 µM
  viability, T/C: 0.43%
Second compound 10 µM, first compound 0.0949 µM
  viability, T/C: 0.45%
Second compound 10 µM, first compound 0.3 µM
  viability, T/C: 0.45%
Second compound 10 µM, first compound 0.949 µM
  viability, T/C: 0.4%
Second compound 10 µM, first compound 3 µM
  viability, T/C: 0.37%

## CC1OCC2(CCN(c3cnc(Sc4ccnc(N)c4Cl)c(N)n3)CC2)C1N (stereo not drawn) + CNCc1ccccc1-c1csc(C(C)Nc2nc(C)nc3cc(OC)c(OC)cc23)c1
Second compound 0.0316 µM
  IC50: > 10 µM
Second compound 0.1 µM
  IC50: 6.91 µM
Second compound 0.316 µM
  IC50: 6.2 µM
Second compound 1 µM
  IC50: 6.91 µM
Second compound 3.16 µM
  IC50: 4.95 µM
Second compound 10 µM
  IC50: < 0.0316 µM
[1]
  viability, T/C: 90.2%
[2]
  viability, T/C: 104%
[3]
  viability, T/C: 86.8%
[4]
  viability, T/C: 80.1%
[5]
  viability, T/C: 83.1%
[6]
  viability, T/C: 51.9%
[7]
  viability, T/C: 94.5%
[8]
  viability, T/C: 108%
[9]
  viability, T/C: 90.4%
[10]
  viability, T/C: 74.2%
[11]
  viability, T/C: 68%
[12]
  viability, T/C: 42.5%
[13]
  viability, T/C: 90.2%
[14]
  viability, T/C: 81.9%
[15]
  viability, T/C: 78.2%
[16]
  viability, T/C: 69.9%
[17]
  viability, T/C: 70.3%
[18]
  viability, T/C: 38.5%
[19]
  viability, T/C: 74.6%
[20]
  viability, T/C: 104%
[21]
  viability, T/C: 79.1%
[22]
  viability, T/C: 67.4%
[23]
  viability, T/C: 68.8%
[24]
  viability, T/C: 42.5%
[25]
  viability, T/C: 90.8%
[26]
  viability, T/C: 98.7%
[27]
  viability, T/C: 82%
[28]
  viability, T/C: 89.2%
[29]
  viability, T/C: 78.9%
[30]
  viability, T/C: 4.77%
[31]
  viability, T/C: 0.35%
[32]
  viability, T/C: 0.39%
[33]
  viability, T/C: 0.53%
[34]
  viability, T/C: 0.42%
[35]
  viability, T/C: 0.4%
[36]
  viability, T/C: 0.25%

## CCNC(=O)CC1N=C(c2ccc(Cl)cc2)c2cc(OC)ccc2-n2c(C)nnc21 (stereo not drawn) + CNCc1ccccc1-c1csc(C(C)Nc2nc(C)nc3cc(OC)c(OC)cc23)c1
Second compound 0.0316 µM
  IC50: > 10 µM
Second compound 0.1 µM
  IC50: > 10 µM
Second compound 0.316 µM
  IC50: > 10 µM
Second compound 1 µM
  IC50: > 10 µM
Second compound 3.16 µM
  IC50: > 10 µM
Second compound 10 µM
  IC50: < 0.0316 µM
[1]
  viability, T/C: 89.8%
[2]
  viability, T/C: 96.4%
[3]
  viability, T/C: 88%
[4]
  viability, T/C: 106%
[5]
  viability, T/C: 114%
[6]
  viability, T/C: 115%
[7]
  viability, T/C: 96.8%
[8]
  viability, T/C: 91.3%
[9]
  viability, T/C: 109%
[10]
  viability, T/C: 92.6%
[11]
  viability, T/C: 120%
[12]
  viability, T/C: 122%
[13]
  viability, T/C: 75.2%
[14]
  viability, T/C: 86.6%
[15]
  viability, T/C: 91.3%
[16]
  viability, T/C: 109%
[17]
  viability, T/C: 94.1%
[18]
  viability, T/C: 93.7%
[19]
  viability, T/C: 69.5%
[20]
  viability, T/C: 105%
[21]
  viability, T/C: 98.5%
[22]
  viability, T/C: 99.4%
[23]
  viability, T/C: 127%
[24]
  viability, T/C: 99.1%
[25]
  viability, T/C: 86.8%
[26]
  viability, T/C: 93.6%
[27]
  viability, T/C: 117%
[28]
  viability, T/C: 97.3%
[29]
  viability, T/C: 108%
[30]
  viability, T/C: 114%
[31]
  viability, T/C: 0.39%
[32]
  viability, T/C: 0.34%
[33]
  viability, T/C: 0.4%
[34]
  viability, T/C: 0.52%
[35]
  viability, T/C: 0.39%
[36]
  viability, T/C: 0.43%

## Cn1nccc1Nc1nccc(-c2cc3c(s2)C(C)(C)N(CCN2CCOCC2)C3=O)n1 + CNCc1ccccc1-c1csc(C(C)Nc2nc(C)nc3cc(OC)c(OC)cc23)c1
Second compound 0.0316 µM
  IC50: 2.14 µM
Second compound 0.1 µM
  IC50: 2.49 µM
Second compound 0.316 µM
  IC50: 2.59 µM
Second compound 1 µM
  IC50: 2.39 µM
Second compound 3.16 µM
  IC50: 1.97 µM
Second compound 10 µM
  IC50: < 0.0316 µM
[1]
  viability, T/C: 94.5%
[2]
  viability, T/C: 119%
[3]
  viability, T/C: 117%
[4]
  viability, T/C: 94.7%
[5]
  viability, T/C: 26.9%
[6]
  viability, T/C: 3.31%
[7]
  viability, T/C: 85.8%
[8]
  viability, T/C: 103%
[9]
  viability, T/C: 105%
[10]
  viability, T/C: 110%
[11]
  viability, T/C: 36.7%
[12]
  viability, T/C: 3.17%
[13]
  viability, T/C: 88.2%
[14]
  viability, T/C: 96.1%
[15]
  viability, T/C: 103%
[16]
  viability, T/C: 111%
[17]
  viability, T/C: 39.6%
[18]
  viability, T/C: 1.89%
[19]
  viability, T/C: 83%
[20]
  viability, T/C: 90.5%
[21]
  viability, T/C: 103%
[22]
  viability, T/C: 96.7%
[23]
  viability, T/C: 36.2%
[24]
  viability, T/C: 0.95%
[25]
  viability, T/C: 102%
[26]
  viability, T/C: 135%
[27]
  viability, T/C: 128%
[28]
  viability, T/C: 99.9%
[29]
  viability, T/C: 15.4%
[30]
  viability, T/C: 0.23%
[31]
  viability, T/C: 0.35%
[32]
  viability, T/C: 0.4%
[33]
  viability, T/C: 0.48%
[34]
  viability, T/C: 0.37%
[35]
  viability, T/C: 0.37%
[36]
  viability, T/C: 0.19%
